These results are taken from EP1834669A1, “Use of specific hydrazone compounds for the treatment of viral infections” (Heinrich-Pette-Institut, priority 2006, dated 2007).

“Also recorded” adds a separate entry of the source. Read-outs that look alike come from different tables or passages of the source.

Data set [1] concerns the target T1, S-adenosylmethionine decarboxylase (SAMDC) (Homo sapiens, UniProt P17707).
T1 sequence (P17707 68-334 limits assumed): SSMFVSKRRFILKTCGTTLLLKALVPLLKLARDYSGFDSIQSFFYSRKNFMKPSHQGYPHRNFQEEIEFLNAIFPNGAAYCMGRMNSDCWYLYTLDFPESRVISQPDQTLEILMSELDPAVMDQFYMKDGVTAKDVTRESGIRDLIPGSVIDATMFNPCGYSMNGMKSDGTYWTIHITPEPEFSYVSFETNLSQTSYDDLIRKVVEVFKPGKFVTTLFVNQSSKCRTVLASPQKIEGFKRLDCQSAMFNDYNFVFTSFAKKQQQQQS
T1 sequence (P17707 1-67 limits assumed): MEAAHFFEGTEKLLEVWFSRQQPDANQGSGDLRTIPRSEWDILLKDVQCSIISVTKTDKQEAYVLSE
To be noted: dihydrochloride, cited from earlier work.

A further data set has as its system eIF-5A. Description: Hypusine modification of eIF-5A, [14C]putrescine labeling, 2D gel electrophoresis and immunoprecipitation. Format: cell-based. The following applies: 0.4 µM, PM1 and HeLaCD4-CAT cells. The procedure: Protein separation was performed using equal amounts of radiolabeled extracts, by isoelectric focusing in the first dimension on an immobilized linear pH gradient (IPG) from pH 4.0 to 7.0, which was followed by SDS-PAGE separation in the second dimension. Only molecular mass of < 25.0 kDa is shown in the autoradiographies. Molecular mass standards are indicated in kDa on the right. […] Coomassie blue-staining of the gel served as protein loading control (lower panel).
Two-Dimensional Gel Electrophoresis and Immunoprecipitation Analysis. […] Gel analysis was performed by autoradiography as previously described (Hauber, I., Bevec, D., Heukeshoven, J., Krätzer, F., Horn, F., Choidas, A., Harrer, T. & Hauber, J. (2005) J. Clin. Invest 115, 76-85). For immunoprecipitation of eIF-5A, 2 x 10^6 HeLaCD4-CAT cells (obtained through the NIH AIDS Research and Reference Reagent Program from B.K.Felber and G.N.Pavlakis) were metabolically labeled as above. The various cellular extracts were prepared and analyzed using a rabbit polyclonal anti-eIF-5A antibody (Schatz, O., Oft, M., Dascher, C., Schebesta, M., Rosorius, O., Jaksche, H., Dobrovnik, M., Bevec, D. & Hauber, J. (1998) Proc. Natl. Acad. Sci. U. S. A 95, 1607-1612) as previously described in detail (Hauber, I., Bevec, D., Heukeshoven, J., Krätzer, F., Horn, F., Choidas, A., Harrer, T. & Hauber, J. (2005) J. Clin. Invest 115, 76-85).

A further data set has as its system HIV-1 BaL. The data set can be described thus: HIV-1 BaL infection of PM1 cells, p24 antigen in supernatant. In kind it is cell-based. The following applies: HIV-1 BaL-infected PM1 cells, p24Gag antigen, day 6 and 9 post-infection; dihydrochloride. The procedure: The culture medium was changed at day 3 and 6 post-infection and the cells were split 1:1. p24^Gag antigen levels and cell viabilities were determined at day 6 and 9 post-infection. The percentage of inhibition of virus replication in the drug-treated cell culture, as compared to the untreated controls is shown in the upper panel. Cell viabilities from the same cultures were determined by alamarBlue™ assay (Serotec) and is shown in the lower panel. (B) Gag-specific Western-blot analysis. […] (C) Analysis of de novo infection. […]
(§1) PM1 cells were cultured in RPMI 1640 medium containing 10% fetal calf serum (Pansystems GmbH) and antibiotics (penicillin and streptomycin) and infected with the virus strains exactly as described elsewhere (Hauber, I., Bevec, D., Heukeshoven, J., Krätzer, F., Horn, F., Choidas, A., Harrer, T. & Hauber, J. (2005) J. Clin. Invest 115, 76-85). […] At the same time cell viability (measured by alamarBlue™ assay) and p24 antigen levels in the supernatant (Innotest HIV p24 Antigen mAb; Innogenetics N. V.) were determined. […]

Data set [2] deals with PBMCs from a healthy donor. The data set can be described thus: Apoptosis assay, FACS with FITC-coupled annexin V. Format: cell-based. The following applies: 0.4 µM, 12 days. The procedure: Analysis of cellular toxicity. (A) Cell viability assay. […] (B) Cell-cycle analysis. […] FACS-analysis was performed by DNA-staining with propidiumiodide. (C) Apoptosis-assay.
Analysis of Cellular Toxicity.

The test system of a further data set is HIV-1 Rev pathway. Description: HIV-1 gag-pol mRNA export with GPV-RRE / GPV-4xCTE constructs in transfected HeLaCD4-CAT cells. The following applies: 0.4 µM, HeLaCD4-CAT cells cultured 5 days, 48 hours post-transfection. Format: cell-based. An excerpt: Transcripts expressed from GPV-RRE access the CRM1/exporti nuclear export pathway. Messages expressed from GPV-4xCTE are transported across the nuclear envelope via the NXF1/TAP pathway. CMV-IE, cytomegalovirus immediate early promoter; pA, polyadenylation site; SD, splice donor; SA, splice acceptor; RRE, Rev reponse element; CTE, constitutive transport element. […] Likewise, cultures were transfected with GVP-4xCTE, a negative control plasmid (to maintain input DNA levels) and the constitutive internal control vector pBC12/CMV/SEAP. At 48 hours post-transfection cell supernatants were assayed for secreted alkaline phosphatase (SEAP) and p24 antigen levels. In addition, p55^Gag- and α-tubulin-specific (protein loading control) Western-blot analyses were performed from representative cell cultures at […].
Transfection Experiments and Plasmids. HeLaCD4-CAT cells were transiently transfected using Lipofectamine and Plus reagent according to the manufacturer's protocol (Invitrogen Corp.). […] At 48 hours post-transfection, cellular lysates were prepared and the levels of β-galactosidase (transfection efficiency control) and luciferase were assayed by ELISA (Roche Applied Science) or luminescence (Promega), respectively. […]

For the next data set, the system named is HIV-1 isolate FE9. The data set can be described thus: Infection of PM1 cells with multidrug-resistant HIV-1 isolate FE9, p24 antigen in supernatant. Format: cell-based. The procedure: Culture medium was changed every third day and cells were split 1:1. Cell viabilities and p24 antigen levels were determined at the indicated days. The percentage of inhibition of virus replication in the drug-treated culture as compared with replication in the untreated control culture is shown in the upper panel. The respective virus growth curves as measured by p24 antigen levels in the culture supernatants are shown in the lower panel. n/a; not applicable. (B) Cellular toxicities were determined in the same cultures by alamarBlue™ assay (Serotec) for metabolic activity.
HIV-1 Infection Experiments. […]
as §1

Chain of eIF-5A (P63241 whole entry): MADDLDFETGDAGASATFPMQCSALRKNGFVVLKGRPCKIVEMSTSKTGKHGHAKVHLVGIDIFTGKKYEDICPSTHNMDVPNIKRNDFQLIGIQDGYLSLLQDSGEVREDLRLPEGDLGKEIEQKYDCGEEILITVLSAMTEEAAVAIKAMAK

Turning to “2-[4-(aminoiminomethyl)-2,3-dihydro-1H-inden-1-ylidene]-hydrazinecarboximidamide dihydrochloride”, the “inhibition of SAMDC” value in data set [1] is “potent inhibitor”; in data set [1] (listed as 2-[4-(aminoiminomethyl)-2,3-dihydro-1H-inden-1-ylidene]-hydrazinecarboximidamide), “efficient inhibitor”. Besides, the “hypusine-formation in eIF-5A” value with eIF-5A was “prevents hypusine-formation”. Moreover, the “HIV-1 BaL replication” value in the data set with HIV-1 BaL was “Inhibition of HIV-1 BaL replication; also recorded: pronounced antiviral effects”. Further, in data set [2], the “effects on cell death” value is “did not induce deleterious effects”. For the same substance, the “HIV-1 Rev pathway” value in the data set on HIV-1 Rev pathway is given as “Specific inhibition”. The “formation of progeny viruses” value with HIV-1 isolate FE9 (PM1 cells infected with multiple HAART-resistant isolate FE9, 0.4 µM, dihydrochloride) is “Inhibition of a multiple HAART-resistant HIV-1 isolate; also recorded: inhibited”. In the data set with HIV-1 isolate FE9 (applied concentration 0.4 µM), the virus replication result was “perfectly blocked virus replication”.
